# pIC50: −log10 of the molar value.
# Experiments:
# [1] = tested on: dimethylated H3K4 in SH-SY5Y cells; experiment: Western blot for H3K4 methylation in SH-SY5Y cells; assay type: cell-based; settings: Dual-1 100 μM vs parnate 250 μM
# From the text: FIG. 3 Compound Dual-1 Increases Histone Methylation.
# B-actin was used as a loading control.
# LSD1 [2] = molecular target: T1, LSD1 (Homo sapiens, UniProt O60341); settings: Ueda et al. (2009) J. Am. Chem. Soc. 131(48):17536-17537; cited from earlier work
# LSD1 [3] = molecular target: T1, LSD1; experiment: LSD1 demethylase inhibition assay (Amplex Red peroxide/peroxidase-coupled); assay type: biochemical; parameters: purchased BPS Bioscience Inc; settings: from the IC50 values for LSD1, MAO-A and MAO-B
# Procedure: Compounds for use in the methods of the invention can be identified by their ability to inhibit LSD1. The ability of compounds to inhibit LSD1 can be tested as follows. Human recombinant LSD1 protein was purchased from BPS Bioscience Inc. In order to monitor LSD1 enzymatic activity and/or its inhibition rate by the LSD1 inhibitor(s) of interest, di-methylated H3-K4 peptide (Millipore) was chosen as a substrate.
# Within the experiment, each concentration of inhibitor was tested in duplicate. […] The enzymatic reactions were set up in a 50 mM sodium phosphate, pH 7.4 buffer. At the end of the incubation, Amplex® Red reagent and horseradish peroxidase (HPR) solution were added to the reaction according to the recommendations provided by the supplier (Invitrogen), and left to incubate for 30 extra minutes at room temperature in the dark. A 1 μM H2O2 solution was used as a control of the kit efficiency. […] Arbitrary units were used to measure level of H2O2 produced in the absence and/or in the presence of inhibitor.
# The maximum demethylase activity of LSD1 was obtained in the absence of inhibitor and corrected for background fluorescence in the absence of LSD1. The Ki (IC50) of each inhibitor was estimated at half of the maximum activity.
compound,measurement,setting,value
NC(=O)CN[C@H]1C[C@@H]1c1ccc(OCc2ccccc2)cc1 (racemic) [Compound 1],potency at increasing global H3K4 methylation levels compared to tranylcypromine,[1],ten-fold or more potent
same,pIC50,LSD1 [2],5.60
same,selectivity class (LSD1 vs MAO-A and MAO-B),LSD1 [3],dual LSD1/MAO-B selective inhibitors
